Assay results taken from article PMC6856130, “Disrupting coupling within mycobacterial F-ATP synthases subunit ε causes dysregulated energy production and cell wall biosynthesis” (Scientific Reports, 2019).

Assays:
[1] = biological target: F-ATP synthase (subunit c) (Mycobacterium tuberculosis, UniProt A1KI93); format: biochemical
[2] = biological target: F-ATP synthase (subunit ε) (Mycobacterium tuberculosis, UniProt A1KI99); format: biochemical
[3] = biological target: T1, F-ATP synthase (subunit ε) (Mycolicibacterium smegmatis, UniProt A0R1Z9); test: NADH-driven ATP synthesis of inverted membrane vesicles; format: biochemical
T1 construct: gene atpC

[4] = biological target: T2, Mtε (F-ATP synthase subunit ε) (Mycobacterium tuberculosis, UniProt P9WPV1); format: binding
T2 construct: gene atpC; recombinant Mtε, 121 residues (N-terminal domain M1-E87, C-terminal domain I90-D121), 15N-labeled
T2 sequence (P9WPV1 whole entry, the tested form may be a part): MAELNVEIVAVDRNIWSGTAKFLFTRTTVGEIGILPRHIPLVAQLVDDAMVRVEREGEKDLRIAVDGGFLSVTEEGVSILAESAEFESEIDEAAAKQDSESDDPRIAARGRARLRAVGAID

F-ATP synthase (subunit c), sequence (A1KI93 whole entry): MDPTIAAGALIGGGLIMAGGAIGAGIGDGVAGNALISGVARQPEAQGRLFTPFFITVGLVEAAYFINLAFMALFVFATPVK
F-ATP synthase (subunit c), sequence (A1KI99 whole entry partner): as the sequence (P9WPV1 whole entry, the tested form may be a part) above
F-ATP synthase (subunit c), sequence (A1KI96 whole entry partner): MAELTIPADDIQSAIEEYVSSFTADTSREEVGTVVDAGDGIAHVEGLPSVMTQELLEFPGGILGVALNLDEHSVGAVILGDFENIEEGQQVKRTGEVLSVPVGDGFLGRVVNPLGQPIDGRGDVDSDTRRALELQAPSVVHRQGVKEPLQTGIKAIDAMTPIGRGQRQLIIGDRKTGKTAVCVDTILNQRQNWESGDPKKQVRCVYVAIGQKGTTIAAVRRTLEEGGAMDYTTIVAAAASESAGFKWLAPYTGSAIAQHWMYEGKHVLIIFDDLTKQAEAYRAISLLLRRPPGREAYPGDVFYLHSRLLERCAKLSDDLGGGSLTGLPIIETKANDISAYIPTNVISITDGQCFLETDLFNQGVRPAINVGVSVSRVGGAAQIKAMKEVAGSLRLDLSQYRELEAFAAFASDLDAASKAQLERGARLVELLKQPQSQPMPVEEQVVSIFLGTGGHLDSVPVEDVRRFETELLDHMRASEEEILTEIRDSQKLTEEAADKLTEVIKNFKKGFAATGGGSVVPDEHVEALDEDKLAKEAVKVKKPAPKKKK
F-ATP synthase (subunit c), sequence (A1KI98 whole entry partner): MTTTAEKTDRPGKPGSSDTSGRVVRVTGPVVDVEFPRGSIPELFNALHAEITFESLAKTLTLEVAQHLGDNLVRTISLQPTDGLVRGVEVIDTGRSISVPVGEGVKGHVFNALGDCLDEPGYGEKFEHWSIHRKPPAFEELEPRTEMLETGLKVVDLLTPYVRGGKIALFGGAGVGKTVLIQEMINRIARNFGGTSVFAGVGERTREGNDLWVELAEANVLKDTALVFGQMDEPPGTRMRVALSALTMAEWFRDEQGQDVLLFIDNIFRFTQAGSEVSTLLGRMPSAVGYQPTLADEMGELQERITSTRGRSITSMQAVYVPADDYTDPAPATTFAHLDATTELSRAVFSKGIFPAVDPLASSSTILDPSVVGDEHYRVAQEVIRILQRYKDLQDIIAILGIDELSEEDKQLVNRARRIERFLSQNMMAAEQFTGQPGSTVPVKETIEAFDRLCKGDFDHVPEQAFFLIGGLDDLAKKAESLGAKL
F-ATP synthase (subunit ε) (Mycobacterium tuberculosis, UniProt A1KI99), sequence (A1KI99 whole entry): as the sequence (P9WPV1 whole entry, the tested form may be a part) above
F-ATP synthase (subunit ε) (Mycobacterium tuberculosis, UniProt A1KI99), sequence (A1KI96 whole entry partner): as the sequence (A1KI96 whole entry partner) above
F-ATP synthase (subunit ε) (Mycobacterium tuberculosis, UniProt A1KI99), sequence (A1KI98 whole entry partner): as the sequence (A1KI98 whole entry partner) above
F-ATP synthase (subunit ε) (Mycobacterium tuberculosis, UniProt A1KI99), sequence (A1KI97 whole entry partner): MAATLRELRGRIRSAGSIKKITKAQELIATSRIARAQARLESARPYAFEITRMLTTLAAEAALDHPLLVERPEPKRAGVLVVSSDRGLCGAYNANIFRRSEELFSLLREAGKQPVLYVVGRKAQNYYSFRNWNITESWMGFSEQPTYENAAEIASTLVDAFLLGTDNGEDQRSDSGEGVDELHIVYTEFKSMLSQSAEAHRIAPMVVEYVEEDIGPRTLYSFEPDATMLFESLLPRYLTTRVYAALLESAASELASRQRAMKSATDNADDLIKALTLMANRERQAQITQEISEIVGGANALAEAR
F-ATP synthase (subunit ε) (Mycobacterium tuberculosis, UniProt A1KI99), sequence (A1KI93 whole entry partner): as the sequence (A1KI93 whole entry) above

Work on COc1nc2ccc(Br)cc2cc1[C@@H](c1ccccc1)[C@@](O)(CCN(C)C)c1cccc2ccccc12 [bedaquiline] yielded an IC50 [1] of 7.05 ± 1.32 nM.
For O=C(O[C@@H]1Cc2c(O)cc(O)cc2O[C@@H]1c1cc(O)c(O)c(O)c1)c1cc(O)c(O)c(O)c1 [epigallocatechin gallate], the IC50 [2] was 2200 ± 300 nM, the IC50 [3] was 155.6 ± 1.2 nM and the “1H-15N HSQC NMR titration, Mtε:EGCG 1:2” value [4] was “gradual line broadening with increasing molar ratios were observed, which demonstrate binding of EGCG with Mtε”.
